Source: PubChem BioAssay (NCI)
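Cells were grown in 96-well plates and exposed to each compound for 48 hours at five concentrations; endpoints were interpolated linearly between bracketing concentrations, or set to the highest concentration if not reached. Here, GI50 denotes the concentration required for 50% inhibition of growth. TGI is the concentration that stops growth completely.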

Experiments:
Test in all cases: DTP human tumour cell line panel, 48 h
[1] = tested on: T-47D breast
[2] = tested on: M14 melanoma
[3] = tested on: SW-620 colon
[4] = tested on: MALME-3M melanoma
[5] = tested on: SR leukemia
[6] = tested on: MCF7 breast
[7] = tested on: NCI-H23 lung
[8] = tested on: NCI-H460 lung
[9] = tested on: SNB-19 CNS
[10] = tested on: SF-268 CNS
[11] = tested on: EKVX NSCLC
[12] = tested on: CCRF-CEM leukemia
[13] = tested on: HCC-2998 colon
[14] = tested on: ACHN renal
[15] = tested on: SK-OV-3 ovarian
[16] = tested on: RPMI-8226 leukemia
[17] = tested on: UO-31 renal
[18] = tested on: MDA-MB-435
[19] = tested on: SK-MEL-5 melanoma
[20] = tested on: HOP-62 NSCLC
[21] = tested on: NCI-H522 lung
[22] = tested on: UACC-257 melanoma
[23] = tested on: SK-MEL-2 melanoma
[24] = tested on: MOLT-4 leukemia
[25] = tested on: OVCAR-3 ovarian
[26] = tested on: SF-539 CNS
[27] = tested on: HT29 colon
[28] = tested on: SNB-75 CNS
[29] = tested on: K-562 leukemia
[30] = tested on: U251 CNS
[31] = tested on: CAKI-1 renal
[32] = tested on: HL-60(TB) leukemia
[33] = tested on: LOX IMVI melanoma
[34] = tested on: MDA-N
[35] = tested on: A498 renal
[36] = tested on: KM12 colon
[37] = tested on: HCT-116 colon
[38] = tested on: MDA-MB-231 breast
[39] = tested on: SN12C renal
[40] = tested on: SK-MEL-28 melanoma
[41] = tested on: DU-145 prostate
[42] = tested on: OVCAR-8 ovarian
[43] = tested on: IGROV1 ovarian
[44] = tested on: OVCAR-5 ovarian
[45] = tested on: HS 578T breast
[46] = tested on: A549 NSCLC
[47] = tested on: UACC-62 melanoma
[48] = tested on: 786-0 renal
[49] = tested on: OVCAR-4 ovarian
[50] = tested on: TK-10 renal
[51] = tested on: NCI-H226 lung
[52] = tested on: HOP-92 NSCLC
[53] = tested on: PC-3 prostate
[54] = tested on: NCI/ADR-RES ovarian
[55] = tested on: SF-295 CNS
[56] = tested on: COLO 205 colon
[57] = tested on: RXF 393 renal
[58] = tested on: HCT-15 colon

## COc1ccc(/C=C2/C(=O)N(/C=C3\C(=O)Oc4ccccc4C3=O)C(=NC(C)=O)N2C)cc1OC
[1]
  TGI: > 100 µM
[2]
  TGI: > 100 µM
[3]
  TGI: > 100 µM
[4]
  TGI: > 100 µM
[5]
  TGI: > 100 µM
[6]
  TGI: > 100 µM
[7]
  TGI: > 100 µM
[8]
  TGI: > 100 µM
[9]
  GI50: > 100 µM
  TGI: > 100 µM
[10]
  TGI: > 100 µM
[11]
  TGI: > 100 µM
[12]
  TGI: > 100 µM
[13]
  TGI: > 100 µM
[14]
  TGI: > 100 µM
[15]
  TGI: > 100 µM
[16]
  TGI: > 100 µM
[17]
  GI50: > 100 µM
  TGI: > 100 µM
[18]
  TGI: > 100 µM
[19]
  TGI: > 100 µM
[20]
  TGI: > 100 µM
[21]
  TGI: > 100 µM
[22]
  TGI: > 100 µM
[23]
  TGI: > 100 µM
[24]
  TGI: > 100 µM
[25]
  TGI: > 41.7 µM
[26]
  TGI: > 100 µM
[27]
  TGI: > 100 µM
[28]
  TGI: > 100 µM
[29]
  TGI: > 100 µM
[30]
  TGI: > 100 µM
[31]
  TGI: > 100 µM
[32]
  TGI: > 100 µM
[33]
  TGI: > 100 µM
[34]
  TGI: > 100 µM
[35]
  GI50: > 100 µM
  TGI: > 100 µM
[36]
  TGI: > 100 µM
[37]
  TGI: > 100 µM
[38]
  TGI: > 100 µM
[39]
  TGI: > 100 µM
[40]
  TGI: > 100 µM
[41]
  TGI: > 100 µM
[42]
  TGI: > 100 µM
[43]
  TGI: > 100 µM
[44]
  TGI: > 100 µM
[45]
  TGI: > 100 µM
[46]
  TGI: > 100 µM
[47]
  TGI: > 100 µM
[48]
  TGI: > 100 µM
[49]
  TGI: > 100 µM
[50]
  GI50: > 100 µM
  TGI: > 100 µM
[51]
  TGI: > 100 µM
[52]
  GI50: > 100 µM
  TGI: > 100 µM
[53]
  TGI: > 100 µM
[54]
  TGI: > 100 µM
[55]
  TGI: > 100 µM
[56]
  TGI: > 100 µM
[57]
  TGI: > 100 µM
[58]
  TGI: > 100 µM
